Data on 5 molecules can be found in patent US20220362386A1, “LIQUID COMPOSITIONS COMPRISING A LEVODOPA AMINO ACID CONJUGATE AND USES THEREOF” (NeuroDerm, Ltd., priority 2019, published 2022).

A short description of one data set: in vitro. The following applies: human. The protocol: Caco-2 cells are human intestinal epithelial cells derived from a colorectal adenocarcinoma.
The assays are performed in both the apical to basolateral (A-B) and the B-A direction. The test compound is prepared at 10 μM in HBSS-HEPES (pH 7.4) with a final DMSO concentration of 1%. The working solution is centrifuged, and the supernatant is added to the donor side. The assay plate is incubated at 37° C. with gentle shaking for 60 min or 40 min for the A-B or B-A assay, respectively. For Pgp substrate assessment, the assays are run with and without 100 μM verapamil on both the A and B sides. For BCRP substrate assessment, the assays are run with and without 10 μM Ko143 on both the A and B sides. For MRP2 substrate assessment, the assays are run with and without 100 μM MK571 on both the A and B sides. Samples are aliquoted from the donor side at time zero and the end point, and from the receiver side at the end point.
Propranolol (highly permeable), labetalol (moderately permeable), ranitidine (poorly permeable), and colchicine (P-glycoprotein substrate), estrone-3-sulfate (BCRP substrate), or CDCF (MRP2 substrate) are included in each assay.
Samples are analyzed by HPLC-MS/MS using selected reaction monitoring. The HPLC system consists of a binary LC pump with an autosampler, a C-18 column, and a gradient. Conditions may be adjusted when necessary.
Fluorescein permeability is assessed in the A-B direction at pH 7.4 on both sides after the permeability assay with the test compound. The cell monolayer with a fluorescein permeability of less than 1.5×10−6 cm/s is considered intact.
The apparent permeability coefficient (Papp) of the test compound and its recovery are calculated as follows: […]
A is the surface area of the cell monolayer (0.11 cm^2). C is concentration of the test compound, expressed as peak area. D denotes donor and R is receiver. 0, mid, and end denote time zero, mid-point, and end of the incubation. Δt is the incubation time. V is the volume of the donor or receiver.
The permeability capabilities of the several LDAA compounds, in their TFA salt form, were determined using the Caco-2 B-A method.

Data set [1] can be described thus: Comparative formulation tests, physical stability (Tables 32a-c, 33a-c). In kind it is physicochemical. Conditions: LDAA TFA salt/CD formulation; for Physical stability (visual), Day 1: Day 1, room temperature; for Physical stability (visual), Day 2: Day 2, room temperature; for Physical stability (visual), Day 5: Day 5, room temperature after two days at 2-8° C.; for Physical stability (visual), Day 6: Day 6, room temperature after two days at 2-8° C.; for Physical stability (visual), Day 40: Day 40, returned to 2-8° C. As to the method:
It is noted that the formulations were similarly to those above; however, CD was added, and further, the amounts of the antioxidants, i.e., ascorbic acid and NAC, were added at three different concentrations, as detailed in Tables 32a-c below. Further, an additional amount of arginine was added to the solution in order to adjust the pH to a physiologically acceptable pH.
The formulations prepared as detailed in Tables 32a, 32b and 32c were (a) held at room temperature for two days; (b) transferred to a refrigerator (2-8° C.) for two days; and (c) transferred from the refrigerator to room temperature for an additional two days, during which they were assessed again for precipitants. The formulations were then returned to the refrigerator (2-8° C.) and assessed for precipitants on day 40. The physical stability of each formulation was assessed on the first two days and again on the last two days. The physical stability of the formulations was assessed visually. A clear solution was considered to be stable, while a solution comprising precipitants was considered to be physically unstable. The stability results of the formulations of Tables 32a, 32b and 32c are detailed in Tables 33a, 33b and 33c, respectively.

A further data set deals with human plasma. In words: Protein binding, equilibrium dialysis method. In kind it is in vitro ADME. Conditions: 1.0E-05M; 37° C., 4 h. The protocol:
(§1) The protein binding values of various LDAA compounds in their TFA salt form (10^−5M) were tested in human plasma. The equilibrium dialysis technique was used to separate the fraction of the test compound that was unbound from the fraction of the test compound that bound to proteins during the test. The test was performed on 96-well plates in a dialysis block constructed from Teflon™.
(§2) The protein containing matrix used was human plasma, wherein the assay matrix was human serum albumin and alpha-1 acid glycoprotein. The protein matrix was spiked with each test compound at 10 μM (by default, n=2) with a final DMSO concentration of 1%. The dialysate compartment is loaded with phosphate buffered saline (PBS, pH 7.4), and the sample compartment was loaded with an equal volume of the spiked protein matrix. The dialysis plate was then sealed and incubated at 37° C. for 4 h.
(§3) Following the incubation, samples were taken from each compartment, diluted with PBS followed by the addition of acetonitrile, after which the samples were centrifuged. The supernatants were collected and analyzed by HPLC-MS/MS. The HPLC tests included a binary LC pump with an autosampler, a C18 column (2×20 mm), and gradient elution. The HPLC conditions were adjusted when necessary.
(§4) A control sample (n=2) was prepared from the spiked protein matrix in the same manner; however, no dialysis was performed on the control. It is noted that the control sample served as the bases for the recovery determination.
(§5) Acebutolol, quinidine, and warfarin were used in each assay as reference compounds, wherein it is known that those reference compounds provide low, medium and high human plasma protein binding values, respectively.
(§6) The % of the tested compound that is bound to proteins and the recovery values were calculated as follows:
(§7) Protein binding (%)=100×(Areap−Areab)/Areap
(§8) Recovery (%)=100×(Areap−Areab)/Areac
(§9) The determination of the recovery % serves as an indicator of reliability of the calculated protein binding value. […] This is most likely due to non-specific binding or degradation of the test compound. It is noted that a recovery of above 60% is considered to be reliable, while under 60% recovery, the results of the test are considered to be unreliable.

Data set [2] is described as follows: Protein binding, equilibrium dialysis method. The following applies: human, human plasma, pH 7.4, 1.0E-05M. In kind it is in vitro ADME, human. The protocol: as §1, §2, §3, §4, §5, §6, §7, §8, §9
A general note: Equilibrium dialysis compares concentrations on both sides of a semipermeable membrane.

The mark [3] stands for this setting: Caco-2, pH 7.4, Percent Recovery 1st.
[4] abbreviates: Caco-2, pH 7.4, Percent Recovery 2nd.
[5] abbreviates: Caco-2, pH 7.4, Percent Recovery Mean.
Setting [6] is: Caco-2, pH 7.4, Permeability 1st.
The mark [7] stands for this setting: Caco-2, pH 7.4, Permeability 2nd.
[8] abbreviates: Caco-2, pH 7.4, Permeability Mean.
[9] abbreviates: NB 144-15, ~0.1% Asc + ~0.1% NAC.
Setting [10] is: NB 144-18, ~0.4% Asc + ~0.4% NAC.
Where [11] appears, read: NB 144-20, ~0.8% Asc + ~0.8% NAC.

SMILES strings stand for the structures. Counter-ions that a name gives are not always drawn. Like-named read-outs stand apart in the source and are kept apart here. Non-standard residues stand in square brackets, D forms with d. Residues, ends and D or L forms follow the SMILES beside them. Dopa = N[C@@H](Cc1ccc(O)c(O)c1)C(=O)O Bounds are passed on as bounds.

What is called Papp B→A is the apparent permeability from the basolateral to the apical side of a cell layer. `N[C@@H](CSC[C@H](NC(=O)[C@@H](N)Cc1ccc(O)c(O)c1)C(=O)O)C(=O)O` (single isomer, unassigned; peak 2) [LD-LA2 TFA salt, Levodopa Lanthionine Peak 2 TFA Salt]: the recovery at 40 min, 10 μM in “in vitro” (setting [3]) amounted to 79%; in the data set “in vitro” (setting [4]), 69%; in “in vitro” (setting [5]), 74%. The figures for the Papp B→A at 40 min, 10 μM in the data set “in vitro” (setting [6]), in the data set “in vitro” (setting [7]) and in the data set “in vitro” (setting [8]) were 13 ×10⁻⁶ cm/s, 13.6 ×10⁻⁶ cm/s and 13.3 ×10⁻⁶ cm/s, respectively.

As to `N[C@@H](Cc1ccc(O)c(O)c1)C(=O)O` [LD (control), L-3,4-dihydroxyphenylalanine, reference compound], the recovery at 40 min, 10 μM was found to be 101% in “in vitro” (setting [3]), 92% in the data set “in vitro” (setting [4]) and 96% in the data set “in vitro” (setting [5]). In addition, the Papp B→A at 40 min, 10 μM in “in vitro” (setting [6]) was 0.38 ×10⁻⁶ cm/s; in the data set “in vitro” (setting [7]) it was 0.41 ×10⁻⁶ cm/s; in “in vitro” (setting [8]), less than 0.4 ×10⁻⁶ cm/s.

`NC(=O)C[C@H](NC(=O)[C@@H](N)Cc1ccc(O)c(O)c1)C(=O)O` [LD-Asn TFA salt, Levodopa Asparagine TFA Salt] (H-[Dopa]-Asn-OH): the recovery at 40 min, 10 μM was 85% in “in vitro” (setting [3]), 84% in the data set “in vitro” (setting [4]) and 85% in the data set “in vitro” (setting [5]). Also, the Papp B→A at 40 min, 10 μM came to 0.42 ×10⁻⁶ cm/s in “in vitro” (setting [6]), 0.39 ×10⁻⁶ cm/s in “in vitro” (setting [7]) and 0.4 ×10⁻⁶ cm/s in the data set “in vitro” (setting [8]).

For `N[C@@H](Cc1ccc(O)c(O)c1)C(=O)N[C@@H](CC(=O)O)C(=O)O` [LD-Asp TFA salt, Levodopa Aspartic Acid] (H-[Dopa]-Asp-OH), in data set [1] (setting [9]), the “Physical stability (visual), Day 1” value is “Stable”; the “Physical stability (visual), Day 2” value is “Stable”; the “Physical stability (visual), Day 5” value is listed as “Stable”; the “Physical stability (visual), Day 6” value is given as “Stable”. For the same molecule, the “Physical stability (visual), Day 40” value in data set [1] (setting [9]) was “Stable”. Also, in data set [1] (setting [10]), the “Physical stability (visual), Day 1” value is “Stable”; the “Physical stability (visual), Day 2” value is “Stable”; the “Physical stability (visual), Day 5” value is on record as “Stable”; the “Physical stability (visual), Day 6” value is “Stable”. In addition, the “Physical stability (visual), Day 40” value in data set [1] (setting [10]) is reported as “Stable”. Also, in data set [1] (setting [11]), the “Physical stability (visual), Day 1” value is listed as “Stable”; the “Physical stability (visual), Day 2” value was “Stable”; the “Physical stability (visual), Day 5” value is “Stable”; the “Physical stability (visual), Day 6” value was “Stable”. Besides, the “Physical stability (visual), Day 40” value in data set [1] (setting [11]) is reported as “Stable”. Besides, in the data set with human plasma, the “% Protein Bound 1st” value was found to be 99.1%, the “% Protein Bound 2nd” value worked out at 99.4% and the “% Protein Bound Mean” value turned out to be 99%. For the same molecule, the recovery at 4 h, 10 μM in data set [2] (read-out: % Recovery 1st) worked out at 105%. Besides, in data set [2] (read-out: % Recovery 2nd), the recovery at 4 h, 10 μM was 108%. Also, the recovery at 4 h, 10 μM in data set [2] (read-out: % Recovery Mean) is 107%.

As for `N[C@@H](Cc1ccc(O)c(O)c1)C(=O)N[C@@H](Cc1ccc(O)cc1)C(=O)O` [LD-Tyr TFA salt, Levodopa Tyrosine TFA Salt] (H-[Dopa]-Tyr-OH), the “Physical stability (visual), Day 1” value in data set [1] (setting [9]), in data set [1] (setting [10]) and in data set [1] (setting [11]) was “Stable” throughout. Also, the “Physical stability (visual), Day 2” value in data set [1] (setting [9]), in data set [1] (setting [10]) and in data set [1] (setting [11]) was “Stable” each time. Also, the “Physical stability (visual), Day 5” value was “Precipitated” in data set [1] (setting [9]), “Stable” in data set [1] (setting [10]) and “Stable” in data set [1] (setting [11]). For the same molecule, the “Physical stability (visual), Day 6” value in data set [1] (setting [9]) was “Precipitated”; in data set [1] (setting [10]) it was “Stable”; in data set [1] (setting [11]), “Stable”. Moreover, the “Physical stability (visual), Day 40” value is “Precipitated” in data set [1] (setting [9]), “Stable” in data set [1] (setting [10]) and “Stable” in data set [1] (setting [11]). The recovery at 40 min, 10 μM in “in vitro” (setting [3]) turned out to be 82%; in “in vitro” (setting [4]), 97%; in the data set “in vitro” (setting [5]), 89%. Besides, the values for the Papp B→A at 40 min, 10 μM in the data set “in vitro” (setting [6]), in “in vitro” (setting [7]) and in the data set “in vitro” (setting [8]) were 0.01 ×10⁻⁶ cm/s, 0.01 ×10⁻⁶ cm/s and less than 0.01 ×10⁻⁶ cm/s, respectively.
